# Measurements published in patent US6046238A, “Method for treating or preventing the spread of acne vulgaris” (TriStrata, Inc., priority 1999, dated 2000).
# “Also recorded” adds a separate entry of the source. Like-named read-outs stand apart in the source and are kept apart here.
# Columns and labels:
# [1] = tested on: Staphylococcus epidermidis; experiment: MIC Agar Dilution Test, Staphylococcus epidermidis; format: cell-based; conditions: S. epidermidis
# Excerpt: (§1) The following strains of microorganisms were used in Minimum Inhibitory Concentration (MIC) tests for phenyl 2-acetoxyethanoic acid in this example and for benzoyl peroxide, chlorhexidine gluconate and triclosan in the following examples. In total, five strains were used for S. aureus, five strains were used for S. epidermidis, two strains were used for M. sedentarius, three strains were used for M. luteus, two strains were used for B. epidermis, three strains were used for C. minutissium, one strain was used for S. marcescens, three strains were used for P. aeruginosa, four strains were used for E. coli, and thirty-two strains were used for P. acnes.
# (§2) Antimicrobial effects were determined based on MIC Agar Dilution Test utilizing Trypticase Soy Agar II (BBL) incorporation plates with and without 10% intralipid (Kabi Pharmacia Inc.). Initially, phenyl 2-acetoxyethanoic acid was prepared as a 2 mg/ml (0.2%) solution in water. This solution with serial dilution was incorporated into the test agar plates. The MIC test gave similar results when the same species but a different strain was used.
# (§3) Under the same test conditions described in Example 1, benzoyl peroxide was prepared as a 2.5 mg/ml (0.25%) solution in water. This solution with serial dilution was incorporated into the test agar plates. Typical test results are shown as follows.
# (§4) Under the same test conditions described in Example 1, chlorhexidine gluconate was prepared as a 2 mg/ml (0.2%) solution in water. This solution with serial dilution was incorporated into the test agar plates. Typical test results are shown as follows.
# (§5) Under the same test conditions described in Example 1, triclosan was prepared as a 10 mg/ml (1%) solution in water. This solution with serial dilution was incorporated into the test agar plates. Typical test results are shown as follows.
# (§6) Ten different species of bacteria were used in Minimum Inhibitory Concentration (MIC) tests. The bacteria include S. aureus, S. epidermidis,M. sedentarius, M. luteus, B. epidermis, C. minutissium, S. marcescens, P. aeruginosa, E. coli, and P. acnes. In addition various sources and strains of these bacteria were also included in the tests, and up to 32 different strains of P. acnes were used.
# (§7) The test substance selected from phenyl 2-acetoxyethanoic acid, benzoyl peroxide, chlorhexidine gluconate and triclosan was dissolved in water, and the solution with serial dilution was incorporated into the test agar plates. The plates containing different concentrations of test substance were inoculated with a strain of bacterium. MIC is defined as the lowest concentration of the test substance in the plate in which there is no growth of the microorganism.
# [2] = tested on: Corynebacterium minutissium; experiment: MIC Agar Dilution Test, Corynebacterium minutissium; format: cell-based; conditions: C. minutissium
# Excerpt: as §1, §2, §3, §4, §5, §6, §7
# [3] = tested on: Serratia marcescens; experiment: MIC Agar Dilution Test, Serratia marcescens; format: cell-based; conditions: S. marcescens
# Excerpt: as §1, §2, §3, §4, §5, §6, §7
# [4] = prophylactic effect in preventing the development of axillary foul odor; format: in vivo, human; conditions: Example 5; 0.5% solution, topical; one person; up to 24 hours
# Method: A typical test for prophylactic effect in preventing the development of axillary foul odor was carried out as follows. A test composition was prepared by dissolving 0.5 g of phenyl 2-acetoxyethanoic acid or diphenyl 2-acetoxyethanoic acid in 70 ml of ethanol and 30 ml of propylene glycol. The control vehicle was prepared by mixing 70 ml of ethanol and 30 ml of propylene glycol. A human subject was instructed to take a shower in the morning using ordinary soap to clean the body surfaces. After the skin was dried, the test composition was topically applied to the left underarm area only. The vehicle control was topically applied to the right underarm area. Both underarm areas were monitored by the subject and at least one other person approximately every 8 hours to determine whether the test composition had any prophylactic effect in preventing the development of underarm foul odor in the left axilla as compared to the vehicle alone on the right control armpit.
# Presence or substantial absence of foul odor, detected by smell, was adopted as the criteria for ineffectiveness or effectiveness of the test composition.
# A total of seven subjects (four females; three males) participated in several studies. Most of these subjects could not use existing commercial products of antiperspirants or deodorants because of severe irritation after topical application. […]
# [5] = axillary antiodor effectiveness (treatment); format: in vivo, human; conditions: 0.5%
# Excerpt: In another study the subjects were instructed not to take a shower in the morning. After the foul odor developed in both axillae, the subjects were instructed to apply the test composition containing 0.5% phenyl 2-acetoxyethanoic acid or diphenyl 2-acetoxyethanoic acid on the left underarm area and the control vehicle on the right underarm area. Topical applications were made once daily for several days.
# Usually the left underarm ceased emanating any detectable foul odor after 1 day of topical use. The subjects were instructed at this time to apply the test composition containing 0.5% phenyl 2-acetoxyethanoic acid or diphenyl 2-acetoxyethanoic acid on the right underarm area also. Topical applications were made once daily for several days. The right axilla ceased to emanate any detectable foul odor after 1 to 2 days of topical use.
# [6] = reversal of corticosteroid unresponsiveness in psoriasis; format: in vivo, human; conditions: added once daily to corticosteroid twice daily; seven patients
# Method: To determine the therapeutic responsive effect of an aryl 2-acetoxyethanoicacid against psoriasis seven patient participated in this study. A test composition was prepared by dissolving 1 g phenyl 2-acetoxyethanoic acid or diphenyl 2-acetoxyethanoic acid in 2 ml ethanol. The solution thus obtained was mixed with 60 g petrolatum and 37 g mineral oil. The anhydrous ointment thus formulated was packaged in one-ounce jars.
# When the drug unresponsiveness to a corticosteroid occurred, the participating patients were instructed to apply in addition the test composition once daily to the lesions on the left side of the body only. Topical applications of the corticosteroid were continued twice daily to both sides of the body. […] While psoriatic lesions on the right side of the body remained unresponsive to the topical corticosteroid, the lesions on the left side started to clear after 3 to 4 weeks of additional topical application with the composition containing an aryl 2-acetoxyethanoic acid.
# At this time the patients were instructed to shift the additional topical application to the lesions on the right side instead of the left side of the body. The psoriatic lesions on the right side of the body began to clear after 3 to 4 weeks of additional topical application with the composition containing aryl 2-acetoxyethanoic acid.
# [7] = 10% intralipid, read-out: MIC Lipid
# [8] = no lipid, read-out: MIC No Lipid
compound,measurement,setting,value
CC(=O)OC(C(=O)O)c1ccccc1 (centres unmarked) [phenyl 2-acetoxyethanoic acid],MIC,[1]; [7],1000 µg/mL
same,MIC,[1]; [8],1000 µg/mL
same,MIC,[2]; [7],500 µg/mL
same,MIC,[2]; [8],500 µg/mL
same,MIC,[3]; [7],1000 µg/mL
same,MIC,[3]; [8],1000 µg/mL
same,prevention of axillary foul odor (left underarm),[4],"did not produce any detectable odor, even after 24 hours; also recorded: substantially effective in preventing the development of axillary foul odor"
same,overall axillary antiodor effectiveness,[5]; topical,topically effective in eradicating the axillary foul odor
same,left axilla on continued use,"[5]; continued, once daily for several days",continued to maintain the condition free of any offensive foul odor
same,time after which left underarm usually ceased emanating any detectable foul odor,"[5]; no-shower study, left side",1 days
same,"intensity of foul odor, left underarm","[5]; no-shower study, once daily",diminished in intensity of foul odor after one to two days of topical application
same,time after which left underarm ceased emanating any detectable foul odor,"[5]; Example 6, once daily, one person, left side",1 days
same,time after which right axilla ceased to emanate any detectable foul odor,"[5]; Example 6, right side, formerly vehicle",1 days
same,"onset of improvement of psoriatic lesions, left side",[6],began to improve after one week
